We go through 2 compounds from patent US20200345645A1, “COMPOSITIONS COMPRISING INDIGO AND/OR AN INDIGO DERIVATIVE AND METHODS OF USE THEREOF” (Azora Therapeutics, Inc., priority 2019, published 2020).

SMILES strings stand for the structures. Where two headings read alike, the source gives them in different places.

The nature of data set [1]: Release of indirubin into fasted-state simulated intestinal fluid (FaSSIF), HPLC. Format: physicochemical. The settings on record: for Amount of indirubin in % Q (measured amount in solution divided by theoretical maximum) / Amount of indirubin in solution: FaSSIF pH 6.5, 37° C., 2 mg total indirubin in 500 mL; for Amount of indirubin in solution: mean of six replicates. As for the experimental part:
Additional solid amorphous dispersions of synthetic indirubin in six different hydrophilic carrier polymers-povidone, PVAc-PVCap-PEG, (SOLUPLUS®), copovidone, HPMC-AS, HPMCP and polyvinyl acetate phthalate (PVAP)—were prepared for a further study, as described in Example 15. In this study, dispersions with indirubin to polymer ratios of 1:9 or 0.5:9.5 were prepared, and the release of indirubin into fasted-state simulated intestinal fluid was determined. For comparison, Indigo naturalis and crystalline synthetic indirubin were also tested. The amount of indirubin in fasted-state simulated intestinal fluid was determined by HPLC for samples of the fluid taken. The mean amount of indirubin in solution at each time point was determined, and is shown in Table 1 in units of μg/L and in Table 2 as a percentage, referred to a % Q, of measured amount (mass) of indirubin in solution divided by the theoretical maximum amount (mass) of indirubin in solution.
Solid amorphous dispersions of synthetic indirubin in six different hydrophilic carrier polymers-povidone, PVAc-PVCap-PEG, (SOLUPLUS®), copovidone, HPMC-AS, HPMCP and polyvinyl acetate phthalate (PVAP) with indirubin to polymer ratios of 1:9 or 0.5 to 9.5 were prepared as described in Example 13. For comparison, Indigo naturalis and crystalline synthetic indirubin were also tested. All test articles were normalized to a total indirubin of 2 mg and added to 500 mL of fasted-state simulated intestinal fluid (FaSSIF) medium consisting of 3 mM taurocholate, 0.75 mM phospholipids, 148 mM sodium, 106 mM chloride, and 29 mM phosphate at pH 6.5. Six replicates of each test article were assessed under the following testing conditions: mixing with USP #2 paddles at 100 RPM at 37° C. with sampling of 5 mL at each time point and filtration through a 10 μm filter. […] The mean amount of indirubin in solution at each time point was determined, and is shown in Table 1 in units of μg/L and in Table 2 as a percentage, referred to a % Q, of measured amount (mass) of indirubin in solution divided by the theoretical maximum amount (mass) of indirubin in solution.

In the next data set the target is human AhR (Homo sapiens, UniProt P35869). Particulars: 24 hours incubation, reporter cells from human Huh7 cells expressing human AhR and ARNT.
The target of data set [2] is T1, aryl hydrocarbon receptor (Homo sapiens, UniProt P35869).
T1 sequence (P35869 11-848): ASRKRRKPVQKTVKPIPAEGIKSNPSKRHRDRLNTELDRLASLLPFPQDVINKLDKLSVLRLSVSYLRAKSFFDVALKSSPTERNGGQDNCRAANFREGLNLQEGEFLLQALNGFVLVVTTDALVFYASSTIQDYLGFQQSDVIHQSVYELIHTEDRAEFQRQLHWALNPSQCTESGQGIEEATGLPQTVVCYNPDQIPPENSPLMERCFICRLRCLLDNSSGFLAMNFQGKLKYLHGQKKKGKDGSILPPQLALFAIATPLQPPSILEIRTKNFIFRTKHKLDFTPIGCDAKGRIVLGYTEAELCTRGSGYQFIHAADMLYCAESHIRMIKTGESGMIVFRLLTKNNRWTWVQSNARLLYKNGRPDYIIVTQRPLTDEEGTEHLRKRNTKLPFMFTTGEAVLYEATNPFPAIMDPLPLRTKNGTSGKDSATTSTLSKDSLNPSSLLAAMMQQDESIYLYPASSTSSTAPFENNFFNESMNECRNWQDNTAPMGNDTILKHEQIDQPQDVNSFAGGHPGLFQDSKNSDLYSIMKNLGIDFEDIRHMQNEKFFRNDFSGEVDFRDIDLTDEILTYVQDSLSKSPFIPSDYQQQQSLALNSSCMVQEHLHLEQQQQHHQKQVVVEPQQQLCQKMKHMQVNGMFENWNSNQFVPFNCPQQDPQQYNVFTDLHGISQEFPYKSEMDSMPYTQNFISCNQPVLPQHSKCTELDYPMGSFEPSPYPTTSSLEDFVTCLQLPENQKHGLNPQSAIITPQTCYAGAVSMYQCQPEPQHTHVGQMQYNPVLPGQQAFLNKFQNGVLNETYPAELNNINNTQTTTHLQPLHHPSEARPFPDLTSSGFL
Particulars: background statement, "It is known", cited from earlier work.

Chain of human AhR (P27540 whole entry partner, one chain of several): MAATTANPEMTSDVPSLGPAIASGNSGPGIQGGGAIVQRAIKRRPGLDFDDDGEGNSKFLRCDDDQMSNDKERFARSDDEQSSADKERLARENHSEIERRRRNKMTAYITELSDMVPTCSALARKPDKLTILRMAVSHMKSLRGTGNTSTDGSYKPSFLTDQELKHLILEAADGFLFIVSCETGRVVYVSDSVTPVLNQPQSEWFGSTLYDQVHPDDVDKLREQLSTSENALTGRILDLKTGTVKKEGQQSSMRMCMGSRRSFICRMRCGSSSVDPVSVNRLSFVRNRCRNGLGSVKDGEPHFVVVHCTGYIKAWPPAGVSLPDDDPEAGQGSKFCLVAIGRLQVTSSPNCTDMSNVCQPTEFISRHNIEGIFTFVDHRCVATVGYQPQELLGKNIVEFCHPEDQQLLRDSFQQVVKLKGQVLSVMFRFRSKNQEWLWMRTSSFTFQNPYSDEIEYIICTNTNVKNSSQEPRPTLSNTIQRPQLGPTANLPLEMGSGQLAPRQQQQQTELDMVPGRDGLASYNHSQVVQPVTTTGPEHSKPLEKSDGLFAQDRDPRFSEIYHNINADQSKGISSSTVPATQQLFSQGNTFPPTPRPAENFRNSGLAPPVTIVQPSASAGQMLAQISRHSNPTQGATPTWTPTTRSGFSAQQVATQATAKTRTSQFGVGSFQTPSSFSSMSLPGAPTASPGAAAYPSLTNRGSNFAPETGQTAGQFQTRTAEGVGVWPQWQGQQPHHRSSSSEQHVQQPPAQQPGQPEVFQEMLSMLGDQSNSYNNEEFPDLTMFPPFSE
Experimental for human AhR: Each was incubated for 24 hours with reporter cells made from human Huh7 cells expressing human AhR and ARNT with luciferase expressed behind a genetic response element that responds to dimerized AhR/ARNT.
After incubation, the medium was aspirated and a detection reagent was added followed by a measurement of the relative luminescent units compared to a negative control of DMSO.

As for `O=C1Nc2ccccc2/C1=C1/Nc2ccccc2C1=O` [Synthetic Indirubin, indirubin], the “Amount of indirubin in % Q (measured amount in solution divided by theoretical maximum)” value was 0.02 % Q in data set [1] (5 min); 0.03 % Q in data set [1] (10 min); 0.03 % Q in data set [1] (20 min); 0.03 % Q in data set [1] (30 min); 0.04 % Q in data set [1] (60 min); 0.05 % Q in data set [1] (90 min). In data set [1] (120 min), the “Amount of indirubin in % Q (measured amount in solution divided by theoretical maximum)” value is 0.07 % Q. In addition, the “Amount of indirubin in solution” value in data set [1] (5 min) was 0.02 µg/L; in data set [1] (10 min), 0.03 µg/L; in data set [1] (20 min) it was 0.03 µg/L; in data set [1] (30 min), 0.03 µg/L; in data set [1] (60 min), 0.04 µg/L; in data set [1] (90 min), 0.05 µg/L. Further, the “Amount of indirubin in solution” value in data set [1] (120 min) is 0.07 µg/L. In addition, the “Release of indirubin, of the total amount of indirubin” value in data set [1] (FaSSIF, summary of Tables 1 and 2) was “Less than 0.1%”. On human AhR, the “Activation of the AhR receptor (fold activation relative to DMSO, FIG. 4)” value is given as “potent activator”. Besides, the “Agonism of the aryl hydrocarbon receptor” value in data set [2] is recorded as “potent agonists”.
Regarding `O=C1/C(=C2\Nc3ccccc3C2=O)Nc2ccccc21` [indigo], the “Agonism of the aryl hydrocarbon receptor” value in data set [2] is reported as “potent agonists”; in data set [2] (listed as Indigo), “less potent than indirubin”.
